Publication PMC2667211, “Kinase Domain Insertions Define Distinct Roles of CLK Kinases in SR Protein Phosphorylation” (Structure(London, England:1993), 2009)

Legend:
[1] = target: CLK1 (Homo sapiens, UniProt P49759); test: coupled-enzyme kinase assay at […] inhibitor; thermal shift […]°C; type: biochemical
[2] = target: T1, CLK3 (Homo sapiens, UniProt P49761); test: kinase assay at […] inhibitor; thermal shift screening; type: biochemical
T1 construct: kinase domain, residues 127–484
T1 sequence (P49761 127-484): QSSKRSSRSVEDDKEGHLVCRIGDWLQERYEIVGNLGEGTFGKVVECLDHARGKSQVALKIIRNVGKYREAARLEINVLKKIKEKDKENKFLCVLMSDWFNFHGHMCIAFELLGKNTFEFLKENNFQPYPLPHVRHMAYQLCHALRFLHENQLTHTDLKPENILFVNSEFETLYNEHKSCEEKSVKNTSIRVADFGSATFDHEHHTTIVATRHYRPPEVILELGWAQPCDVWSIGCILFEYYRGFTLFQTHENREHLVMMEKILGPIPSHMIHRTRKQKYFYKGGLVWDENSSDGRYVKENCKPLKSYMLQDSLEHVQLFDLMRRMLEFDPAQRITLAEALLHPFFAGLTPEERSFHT

CLK1, sequence (P49759 148-484): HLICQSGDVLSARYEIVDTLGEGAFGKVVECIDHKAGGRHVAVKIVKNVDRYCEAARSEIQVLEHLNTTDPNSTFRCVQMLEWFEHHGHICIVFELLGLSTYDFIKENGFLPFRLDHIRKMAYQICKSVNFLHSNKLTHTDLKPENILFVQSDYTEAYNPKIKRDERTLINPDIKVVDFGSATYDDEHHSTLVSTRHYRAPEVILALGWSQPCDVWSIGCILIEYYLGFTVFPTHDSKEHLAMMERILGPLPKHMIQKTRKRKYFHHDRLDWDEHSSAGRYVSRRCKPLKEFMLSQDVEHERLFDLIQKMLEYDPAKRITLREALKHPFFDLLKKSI

% activity at 100 nM [1]: < 1
% activity at 100 nM [2]: < 50
SMILES: Nc1nc(Nc2ccc(S(N)(=O)=O)cc2)nn1C(=S)Nc1c(F)cccc1F [compound 11, CDK1/2 inhibitor]
